Columns and labels:
[1] = target: human Adenosine A2a receptor (Homo sapiens (Human), UniProt P29274); assay: Adenosine receptor TR-FRET binding assay (A2a); conditions: inhibition of binding of 100 nM CA200645, CHO cell membranes
Method in brief: (§1)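 Compounds were serially diluted 1:3 in DMSO, then incubated with CHO membranes bearing Tb-tagged human receptor plus CA200645 (A2b 30 nM; A1, A2a, A3 100 nM) for 2 h at room temperature. Time-resolved FRET was read, non-specific binding subtracted using 10 μM XAC, and Ki calculated.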

[2] = target: human Adenosine A1 receptor (Homo sapiens (Human), UniProt P30542); assay: Adenosine receptor TR-FRET binding assay (A1); conditions: inhibition of binding of 100 nM CA200645, CHO cell membranes
Method in brief: as §1

[3] = system: human PBMCs; assay: CD3/CD28 stimulated IL-2 release NECA reversal assay in human PBMCs; assay type: cell-based; conditions: PBMC, 1 uM NECA, 24 hours, IL-2 in culture supernatant
Method in brief: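 PBMCs from citrated healthy-donor blood plated at 50,000 cells/well on 1 ug/ml CD3 antibody with 1 ug/ml CD28 antibody, 1 uM NECA and 0.003-10 μM antagonist (final), 24 h at 37° C. Supernatant IL-2 measured by MSD immunoassay; % inhibition set against no-NECA control wells as 100%.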

[4] = system: immature monocyte-derived dendritic cells (MoDC); assay: MoDC pCREB assay; assay type: cell-based, human; conditions: Homo sapiens, Dendritic cell; pCREB in immature MoDC, 1 μM NECA, rolipram
Method: Monocytes are isolated from human whole blood using CD14 microbeads (Miltenyi Biotec 130-050-201) and differentiated to immature monocyte-derived dendritic cells (MoDC) by culture for 5 days in Mo-DC Differentiation Medium (Miltenyi Biotec 130-094-812). MoDCs are seeded into fresh medium into U bottomed 96 well culture plates and pre-incubated at 37° C. with serial dilutions of A2A/B antagonists for 15 min. At the same time the cells are co-incubated with the phosphodiesterase inhibitor rolipram (final concentration of 20 µM) to amplify the subsequent pCREB response. Adenosine receptor agonist NECA is then added at 1 μM final concentration, leading to an increase in CREB phosphorylation. Following a 45 min incubation at 37° C., the cells are fixed, permeabilized and stained with directly conjugated fluorescent antibodies to phospho-CREB (Alexa Fluor 488), CD209 (PerCP-Cy5.5) and CD86 (APC). Samples are analysed by FACS to measure fluorescence in corresponding channels, and also forward and Side scatter. The population of CD209+/CD86− low cells corresponding to immature dendritic cells is gated for analysis of pCREB levels.
Approximately 5% of the analysed cells are positive for detection of pCREB in the absence of agonist stimulation, representing the background signalling of all pathways upstream of CREB. Following NECA stimulation this is increased to ˜80% pCREB+ve, and this increase is essentially fully reversible by A2B or dual A2A/B antagonists.
IC50 is represented as the point of inflection of a sigmoidal curve

[5] = target: human Adenosine A2b receptor (Homo sapiens (Human), UniProt P29275); assay: Adenosine receptor TR-FRET binding assay (A2b); conditions: TR-FRET, inhibition of binding of 30 nM CA200645, CHO cell membranes
Method in brief: as §1

[6] = target: human Adenosine A3 receptor (Homo sapiens (Human), UniProt P0DMS8); assay: Adenosine receptor TR-FRET binding assay (A3); conditions: inhibition of binding of 100 nM CA200645, CHO cell membranes
Method in brief: as §1

[7] = system: CD8+T cells in human whole blood; assay: Measurement of pCREB in CD8+T cells in human whole blood; assay type: cell-based; conditions: 3 μM NECA, rolipram
Method in brief: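 Heparinised human whole blood pre-incubated 20 min at 37 °C with serially diluted A2a antagonists plus rolipram, then stimulated 60 min with 3 μM NECA (final). After fixation and red-cell lysis, white cells were permeabilized and stained for phospho-CREB and CD8; pCREB in CD8+ T cells measured by flow cytometry.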

Sequence of human Adenosine A2b receptor (P29275 whole entry): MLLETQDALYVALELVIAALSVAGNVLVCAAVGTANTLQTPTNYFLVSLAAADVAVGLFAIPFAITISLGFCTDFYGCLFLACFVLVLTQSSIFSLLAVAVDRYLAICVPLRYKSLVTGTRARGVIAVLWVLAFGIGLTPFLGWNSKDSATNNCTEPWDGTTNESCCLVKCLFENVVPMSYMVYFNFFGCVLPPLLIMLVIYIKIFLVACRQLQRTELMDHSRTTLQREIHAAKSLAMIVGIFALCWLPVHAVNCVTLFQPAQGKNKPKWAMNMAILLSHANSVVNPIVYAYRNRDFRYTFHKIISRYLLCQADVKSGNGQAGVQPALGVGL
Sequence of human Adenosine A1 receptor (P30542 whole entry): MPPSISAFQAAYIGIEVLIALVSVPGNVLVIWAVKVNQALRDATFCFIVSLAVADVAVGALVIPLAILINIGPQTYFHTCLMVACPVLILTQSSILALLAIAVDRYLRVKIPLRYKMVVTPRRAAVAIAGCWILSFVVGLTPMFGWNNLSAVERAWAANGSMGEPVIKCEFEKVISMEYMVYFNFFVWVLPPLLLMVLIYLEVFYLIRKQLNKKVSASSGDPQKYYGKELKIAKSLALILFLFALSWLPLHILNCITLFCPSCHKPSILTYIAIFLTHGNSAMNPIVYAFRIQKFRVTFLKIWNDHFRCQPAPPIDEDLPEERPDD
Sequence of human Adenosine A2a receptor (P29274 whole entry): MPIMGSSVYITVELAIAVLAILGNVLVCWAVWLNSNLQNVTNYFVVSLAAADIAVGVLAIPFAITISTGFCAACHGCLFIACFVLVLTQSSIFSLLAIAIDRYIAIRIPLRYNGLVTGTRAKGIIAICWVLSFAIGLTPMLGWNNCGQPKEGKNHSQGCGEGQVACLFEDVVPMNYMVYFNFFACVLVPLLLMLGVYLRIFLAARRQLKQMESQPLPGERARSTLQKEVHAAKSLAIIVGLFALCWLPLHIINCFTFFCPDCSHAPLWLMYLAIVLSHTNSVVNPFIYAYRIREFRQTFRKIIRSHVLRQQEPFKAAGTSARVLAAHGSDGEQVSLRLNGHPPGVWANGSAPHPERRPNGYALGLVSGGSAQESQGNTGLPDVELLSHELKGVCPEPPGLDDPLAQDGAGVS
Sequence of human Adenosine A3 receptor (P0DMS8 whole entry): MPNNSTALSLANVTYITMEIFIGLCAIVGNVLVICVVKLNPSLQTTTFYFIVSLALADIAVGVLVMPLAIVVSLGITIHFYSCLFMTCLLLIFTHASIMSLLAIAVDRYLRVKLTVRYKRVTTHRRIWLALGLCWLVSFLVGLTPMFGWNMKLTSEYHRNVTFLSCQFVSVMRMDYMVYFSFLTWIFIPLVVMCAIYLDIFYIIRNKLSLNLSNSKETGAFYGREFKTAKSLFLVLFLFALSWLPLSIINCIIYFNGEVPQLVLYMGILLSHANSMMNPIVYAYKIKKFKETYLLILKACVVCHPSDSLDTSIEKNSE

Ki [1] [nM]	Ki [2] [nM]	IC50 [4] [nM]	Ki [5] [nM]	Ki [6] [nM]	IC50 [7] [nM]	Compound	IC50 [3] [nM]
1.44	81	24	1.3	233	600	Cc1cc(-c2sc(NC(=O)N3CCC4(CC3)NC(=O)N(C)C4=O)nc2-c2cccc(C#N)c2)cc(C)n1 [Example 6.6, N-[4-(3-Cyanophenyl)-5-(2,6-dimethyl-4-pyridyl)thiazol-2-yl]-3-methyl-2,4-dioxo-1,3,8-triazaspiro[4.5]decane-8-carboxamide]	8.2
0.11	14	7	0.7	281	20	Cc1cc(-c2sc(NC(=O)N3CC(C)(C#N)C3)nc2-c2cccc(C#N)c2)cc(C)n1 [Example 6.7, 3-Cyano-N-[4-(3-cyanophenyl)-5-(2,6-dimethyl-4-pyridyl)thiazol-2-yl]-3-methyl-azetidine-1-carboxamide]	0.8
0.87	133	16	4.2	377	90	Cc1cc(-c2sc(NC(=O)N3CC[C@@H](C(C)(C)O)C3)nc2-c2cccc(C#N)c2)cc(C)n1 [Example 6.36, (3R)-N-[4-(3-Cyanophenyl)-5-(2,6-dimethyl-4-pyridyl)thiazol-2-yl]-3-(1-hydroxy-1-methyl-ethyl)pyrrolidine-1-carboxamide]	4.2
2.06	113	38	1.9	235	360	Cc1cc(-c2sc(NC(=O)N3CC4(C3)CS(=O)(=O)C4)nc2-c2cccc(C#N)c2)cc(C)n1 [Example 6.46, N-[4-(3-Cyanophenyl)-5-(2,6-dimethyl-4-pyridyl)thiazol-2-yl]-2,2-dioxo-2λ^∧{6}-thia-6-azaspiro[3.3]heptane-6-carboxamide]	15.1
0.27	110	40	1.6	662	130	Cc1cc(-c2sc(NC(=O)N3CC4(CCOC4)C3)nc2-c2cccc(C#N)c2)cc(C)n1 [Example 6.53, N-[4-(3-Cyanophenyl)-5-(2,6-dimethyl-4-pyridyl)thiazol-2-yl]-6-oxa-2-azaspiro[3.4]octane-2-carboxamide]	2.5
0.63	23	1	1.9	219	240	Cc1cc(-c2sc(NC(=O)N3CCOC[C@H]3C)nc2-c2cccc(C#N)c2)cc(C)n1 [Example 6.74, (3R)-N-[4-(3-Cyanophenyl)-5-(2,6-dimethyl-4-pyridyl)thiazol-2-yl]-3-methyl-morpholine-4-carboxamide]	5.6

More lines, now with the values behind:

Compound	Ki [1] [nM]	Ki [2] [nM]	IC50 [4] [nM]	Ki [5] [nM]	Ki [6] [nM]	IC50 [7] [nM]	IC50 [3] [nM]
Cc1cc(-c2sc(NC(=O)N3CCC(C#N)CC3)nc2-c2cccc(C#N)c2)cc(C)n1 [Example 4.1, 4-Cyano-N-[4-(3-cyanophenyl)-5-(2,6-dimethyl-4-pyridyl)thiazol-2-yl]piperidine-1-carboxamide]	0.11	11	15	0.6	145	10	0.3
Cc1cc(-c2sc(NC(=O)N3CCN(C4COC4)CC3)nc2-c2cccc(C#N)c2)cc(C)n1 [Example 4.4, N-[4-(3-Cyanophenyl)-5-(2,6-dimethyl-4-pyridyl)thiazol-2-yl]-4-(oxetan-3-yl)piperazine-1-carboxamide]	0.86	263	95	4.5	568	170	6.2
Cc1cc(-c2sc(NC(=O)N3CC[C@H](C#N)C3)nc2-c2cccc(C#N)c2)cc(C)n1 [Example 4.8, (3S)-3-Cyano-N-[4-(3-cyanophenyl)-5-(2,6-dimethyl-4-pyridyl)thiazol-2-yl]pyrrolidine-1-carboxamide]	0.37	17	12	1.5	180	40	1.1
Cc1cc(-c2sc(NC(=O)N3CC(C)(O)C3)nc2-c2cccc(C#N)c2)cc(C)n1 [Example 4.9, N-[4-(3-Cyanophenyl)-5-(2,6-dimethyl-4-pyridyl)thiazol-2-yl]-3-hydroxy-3-methyl-azetidine-1-carboxamide]	0.14	9	26	1.5	133	50	3.2
Cc1cc(-c2sc(NC(=O)N3CC4(COC4)C3)nc2-c2cccc(C#N)c2)cc(C)n1 [Example 4.12, N-[4-(3-Cyanophenyl)-5-(2,6-dimethyl-4-pyridyl)thiazol-2-yl]-2-oxa-6-azaspiro[3.3]heptane-6-carboxamide]	0.26	31	18	1.1	389	50	2
COC1(C#N)CCN(C(=O)Nc2nc(-c3cccc(C#N)c3)c(-c3cc(C)nc(C)c3)s2)CC1 [Example 4.22, 4-Cyano-N-[4-(3-cyanophenyl)-5-(2,6-dimethyl-4-pyridyl)thiazol-2-yl]-4-methoxy-piperidine-1-carboxamide]	0.1	35	11	0.9	165	110	1.1
Cc1cc(-c2sc(NC(=O)N3CCC(C#N)(CO)CC3)nc2-c2cccc(C#N)c2)cc(C)n1 [Example 4.23, 4-Cyano-N-[4-(3-cyanophenyl)-5-(2,6-dimethyl-4-pyridyl)thiazol-2-yl]-4-(hydroxymethyl)piperidine-1-carboxamide]	0.2	54	20	0.7	267	30	0.6
Cc1cc(-c2sc(NC(=O)N3CC[S+]([O-])CC3)nc2-c2cccc(C#N)c2)cc(C)n1 [Example 4.24, N-[4-(3-Cyanophenyl)-5-(2,6-dimethyl-4-pyridyl)thiazol-2-yl]-1-oxo-1,4-thiazinane-4-carboxamide]	0.18	15	79	2.4	383	80	2.8
Cc1cc(-c2sc(NC(=O)N3CCC4(CC3)C(=O)N(C)C(=O)N4C)nc2-c2cccc(C#N)c2)cc(C)n1 [Example 4.28, N-[4-(3-Cyanophenyl)-5-(2,6-dimethyl-4-pyridyl)thiazol-2-yl]-1,3-dimethyl-2,4-dioxo-1,3,8-triazaspiro[4.5]decane-8-carboxamide]	0.48	135	10	2.4	77	670	4.7
Cc1cc(-c2sc(NC(=O)N3CCC(C#N)(C#N)CC3)nc2-c2cccc(C#N)c2)cc(C)n1 [Example 4.32, 4,4-Dicyano-N-[4-(3-cyanophenyl)-5-(2,6-dimethyl-4-pyridyl)thiazol-2-yl]piperidine-1-carboxamide]	0.15	26	14	1.1	457	60	0.7
Cc1cc(-c2sc(NC(=O)N3CCC(C)(C#N)CC3)nc2-c2cccc(C#N)c2)cc(C)n1 [Example 6, 4-Cyano-N-[4-(3-cyanophenyl)-5-(2,6-dimethyl-4-pyridyl)thiazol-2-yl]-4-methyl-piperidine-1-carboxamide]	0.12	37	9	1.1	283	70	0.6
